From ChEMBL document CHEMBL1201862, “PubChem BioAssay data set” (2004) come the findings set out here.

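Five compound concentrations were applied to cells in 96-well plates for 48 hours; endpoints were derived by simple linear interpolation of the resulting dose-response curve. Here, GI50 denotes the concentration required for 50% inhibition of growth.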 Active and inactive are the calls of the source. Cut-off read from the data, not from the text of the source: active = GI50 up to about 1.1 µM and inactive = higher.

Some test systems named below: 786-0; CAKI-1; COLO 205; DU-145; HCT-15; HOP-62; HT-29; IGROV-1; M14; NCI-H23; NCI-H522; OVCAR-4; PC-3; RPMI-8226; RXF 393; SR; SW-620; UACC-257; UO-31; HL-60.
Common to all, as to assay: DTP human tumour cell line panel, 48 h

For the molecule `NC(CCC(=O)NC(CSC(=O)N(O)c1ccc(Cl)cc1)C(=O)NCC(=O)O)C(=O)O` (stereo unspecified), the GI50 in the assay on 786-0 is > 0.5 µM (active); in the assay with CAKI-1 it was > 0.5 µM (active); in the assay on COLO 205, > 0.5 µM (active); in the assay with DU-145, > 0.5 µM (active); with HCT-15, > 0.5 µM; with HOP-62, > 0.5 µM (active). Further, the 50% growth inhibitory concentration (GI50) in the assay with HT-29, in the assay on IGROV-1, in the assay with M14, in the assay with NCI-H23, in the assay on NCI-H522 and with OVCAR-4 was > 0.5 µM (active) throughout. Moreover, the GI50 in the assay on PC-3, in the assay on RPMI-8226, in the assay on RXF 393, with SR, in the assay with SW-620 and in the assay with UACC-257 was > 0.5 µM (active) throughout. The concentration for 50% growth inhibition (GI50) with UO-31 is > 0.5 µM (active).

On to `O=[N+]([O-])C(C(Cl)=C(Cl)Cl)=C(n1cncn1)n1cncn1`, for which the GI50 in the assay on 786-0 is 18.6 µM (inactive); in the assay on CAKI-1, 5.47 µM (inactive); in the assay with COLO 205, 13.7 µM (inactive); with DU-145, 16.5 µM (inactive); with HCT-15, 17.8 µM; in the assay with HOP-62, > 75.2 µM (inactive). The GI50 in the assay with HT-29 was 19 µM (inactive); in the assay on IGROV-1, 16.6 µM (inactive); in the assay with M14, 31.4 µM (inactive); in the assay on NCI-H23, 25.6 µM (inactive); in the assay on NCI-H522 it was 14 µM (inactive); in the assay on OVCAR-4, 24.4 µM (inactive). The GI50 is 32.1 µM (inactive) in the assay on PC-3; 17.1 µM (inactive) with RPMI-8226; 14.6 µM (inactive) in the assay with RXF 393; 31.2 µM (inactive) in the assay with SR; 18.8 µM (inactive) in the assay with SW-620; 31.3 µM (inactive) in the assay on UACC-257. In the assay with UO-31, the GI50 is 18.5 µM (inactive).

Take `CCCCCC(=O)CCCCCCCC(O)CC(=O)OCC` (stereo unspecified): the GI50 with 786-0 was > 100 µM (inactive); with CAKI-1, > 100 µM (inactive); in the assay on DU-145, > 100 µM (inactive); in the assay with HCT-15, > 100 µM; in the assay with HL-60 it was 48.9 µM (inactive); with HOP-62, > 100 µM (inactive). Further, the GI50 in the assay with HT-29, in the assay with IGROV-1, in the assay with M14, in the assay with NCI-H23, in the assay on NCI-H522 and in the assay with PC-3 was > 100 µM (inactive) in each case. Moreover, the GI50 in the assay on RPMI-8226, in the assay with SR, in the assay on SW-620, in the assay on UACC-257 and with UO-31 was > 100 µM (inactive) throughout.

`CC(Cn1c(=O)oc2ccccc21)N(C)C` (stereo unspecified): the GI50 was > 100 µM (inactive) with 786-0; > 100 µM (inactive) with CAKI-1; > 100 µM (inactive) in the assay on COLO 205; > 100 µM (inactive) with DU-145; > 100 µM in the assay on HCT-15; > 100 µM (inactive) with HL-60. The GI50 in the assay with HOP-62, in the assay with HT-29, with IGROV-1, in the assay on M14, in the assay on NCI-H23 and with PC-3 was > 100 µM (inactive) in each case. Further, the GI50 in the assay with RPMI-8226, in the assay with RXF 393, in the assay with SR, in the assay with SW-620 and in the assay on UACC-257 was > 100 µM (inactive) each time.

For the molecule `CN(C)c1ccc(/C(Br)=C2\OC(=O)c3ccccc32)cc1`, the GI50 in the assay on 786-0 is > 100 µM (inactive); with CAKI-1, > 100 µM (inactive); with COLO 205, 56.1 µM (inactive); in the assay on DU-145, > 100 µM (inactive); in the assay with HCT-15, 87.3 µM; in the assay on HL-60, 34 µM (inactive). The GI50 in the assay on HOP-62 was > 100 µM (inactive); in the assay with HT-29 it was 42.3 µM (inactive); with IGROV-1, > 100 µM (inactive); in the assay on M14 it was > 100 µM (inactive); in the assay on NCI-H23 it was > 100 µM (inactive); in the assay on OVCAR-4, > 100 µM (inactive). Moreover, the GI50 in the assay on PC-3 is > 100 µM (inactive); in the assay on RPMI-8226 it was 24.3 µM (inactive); with SR, 34.8 µM (inactive); in the assay with SW-620, 93.5 µM (inactive); in the assay with UACC-257 it was > 100 µM (inactive); in the assay on UO-31 it was > 100 µM (inactive).

Turning to `Cc1cc(N2CCOCC2)nc2ccc(Cc3ccc4nc(N5CCOCC5)cc(C)c4c3)cc12`, the GI50 with 786-0 was 32 µM (inactive); in the assay on CAKI-1, > 100 µM (inactive); with COLO 205, 13.3 µM (inactive); in the assay on DU-145, > 100 µM (inactive); with HCT-15, 41.8 µM; in the assay with HOP-62, > 100 µM (inactive). Moreover, the GI50 in the assay with HT-29 was 18.7 µM (inactive); in the assay on IGROV-1, > 100 µM (inactive); with M14, 41.1 µM (inactive); in the assay on NCI-H23, 54 µM (inactive); in the assay on NCI-H522, 26.5 µM (inactive); in the assay on OVCAR-4, > 100 µM (inactive). In addition, the GI50 with PC-3 was 56.4 µM (inactive); in the assay on RPMI-8226, 20.2 µM (inactive); in the assay with RXF 393 it was 25.9 µM (inactive); in the assay with SR it was 28.3 µM (inactive); in the assay with SW-620 it was 35.9 µM (inactive); with UACC-257, 25.6 µM (inactive). Also, the GI50 in the assay on UO-31 was 38.2 µM (inactive).

Turning to `O=C1C=C(N2CCN(c3ncccn3)CC2)C(=O)c2c(O)ccc(O)c21`, the GI50 in the assay on 786-0 is 53 µM (inactive); in the assay with CAKI-1, > 100 µM (inactive); with COLO 205, > 100 µM (inactive); in the assay with DU-145, > 100 µM (inactive); with HCT-15 it was > 100 µM; with HL-60 it was > 100 µM (inactive). The GI50 with HOP-62 is 49.2 µM (inactive); in the assay on HT-29 it was > 100 µM (inactive); with IGROV-1 it was > 100 µM (inactive); in the assay on M14, > 100 µM (inactive); in the assay on NCI-H23, > 100 µM (inactive); in the assay with NCI-H522 it was > 100 µM (inactive). Further, the GI50 in the assay with OVCAR-4, in the assay on PC-3, in the assay with SR, with SW-620, in the assay on UACC-257 and with UO-31 was > 100 µM (inactive) in each case.

Consider `Cc1nc2c(=O)[nH]ncc2[nH]1`, for which the GI50 with 786-0 is > 100 µM (inactive); in the assay on CAKI-1 it was > 100 µM (inactive); in the assay on COLO 205, > 100 µM (inactive); in the assay on DU-145, > 100 µM (inactive); with HCT-15, > 100 µM; in the assay with HL-60 it was 64 µM (inactive). Also, the GI50 with HOP-62, in the assay on HT-29, in the assay with IGROV-1, in the assay on M14, in the assay with NCI-H23 and in the assay with PC-3 was > 100 µM (inactive) each time. Besides, the GI50 with RPMI-8226, with RXF 393, with SR, in the assay with SW-620, with UACC-257 and with UO-31 was > 100 µM (inactive) each time.

In the case of `CCC(C)NC(=S)N/N=C(\C)c1ccccn1` (stereo unspecified), the GI50 with 786-0 is 0.171 µM (active); in the assay on CAKI-1, < 0.01 µM (active); in the assay on COLO 205, < 0.01 µM (active); with DU-145, 1.28 µM (inactive); in the assay on HCT-15 it was < 0.01 µM; in the assay on HL-60, < 0.01 µM (active). Also, the GI50 in the assay on HOP-62 was 0.0348 µM (active); in the assay with HT-29, < 0.01 µM (active); with IGROV-1 it was < 0.01 µM (active); in the assay on M14, 0.0372 µM (active); in the assay with NCI-H23, < 0.021 µM (active); in the assay on OVCAR-4, 1.31 µM (inactive). For the same molecule, the concentration for 50% growth inhibition (GI50) in the assay with PC-3 is < 0.01 µM (active); in the assay on RPMI-8226, < 0.01 µM (active); in the assay with RXF 393, < 0.01 µM (active); with SR, < 0.01 µM (active); in the assay with SW-620, < 0.0132 µM (active); in the assay with UACC-257, < 0.01 µM (active). Moreover, in the assay with UO-31, the GI50 was 0.142 µM (active).

For the molecule `CC(C)c1ccc2c(c1)/C(=C1/Nc3ccccc3C1=O)C(=O)N2`, the GI50 with 786-0 was 3.52 µM (inactive); in the assay with CAKI-1, 14.3 µM (inactive); with COLO 205, > 100 µM (inactive); in the assay on DU-145 it was 15.2 µM (inactive); in the assay with HCT-15, 36.5 µM; in the assay with HOP-62, 4.57 µM (inactive). Besides, the GI50 in the assay with HT-29 was 26.8 µM (inactive); in the assay on IGROV-1 it was 1.45 µM (inactive); with M14, 33.6 µM (inactive); with NCI-H23, 24.4 µM (inactive); in the assay on NCI-H522, 25.5 µM (inactive); in the assay on OVCAR-4 it was 1.7 µM (inactive). In addition, the GI50 was 8.85 µM (inactive) with PC-3; 27.8 µM (inactive) in the assay on RPMI-8226; 1.42 µM (inactive) with RXF 393; 18.4 µM (inactive) in the assay on SR; 43.3 µM (inactive) in the assay on SW-620; 61.8 µM (inactive) in the assay with UACC-257. For the same molecule, the GI50 in the assay with UO-31 is 6.5 µM (inactive).

As to `O=C(c1cccs1)c1nccc2c1cnc1ccccc12`, the GI50 with 786-0 is 68.5 µM (inactive); in the assay on CAKI-1 it was 41.5 µM (inactive); in the assay on COLO 205 it was > 100 µM (inactive); in the assay on DU-145, > 100 µM (inactive); with HCT-15 it was > 100 µM; in the assay with HL-60, > 100 µM (inactive). For the same molecule, the GI50 in the assay on HOP-62 is 28.7 µM (inactive); in the assay on HT-29, > 100 µM (inactive); in the assay with M14 it was > 100 µM (inactive); in the assay on NCI-H23, 92.7 µM (inactive); with OVCAR-4 it was > 100 µM (inactive); with PC-3 it was > 100 µM (inactive). The GI50 with RPMI-8226 was > 100 µM (inactive); in the assay on RXF 393, 0.0113 µM (active); in the assay with SR, > 100 µM (inactive); in the assay with SW-620, > 100 µM (inactive); in the assay with UACC-257, > 100 µM (inactive); with UO-31, > 100 µM (inactive).
